Data set [1] can be described thus: Oral exposure. Format: in vivo. The conditions noted are these: rat, 1 mg/kg, male Fischer 344 rats, fasted, gavage, suspension 1 mg/mL at 1 mL/kg, plasma. As to the method:
Compounds are screened for oral exposure in male Fischer 344 rats. Animals are fasted overnight and administered test compounds prepared as suspensions in sodium carboxymethylcellulose (1% w/v) containing Tween 80 (0.25% v/v) and antifoam (0.1% w/v). Dose suspensions are prepared at 1 mg/mL and administered at 1 mL/kg by gavage. Blood samples are taken between 0.5 h and 7 h after dose administration and plasma are prepared by centrifugation. Plasma samples are analyzed using online solid phase extraction and LC/MS/MS.

In data set [2] the test system is TNFα. The data set is described as follows: Effect on intra-articular LPS induced TNFα (synovial lavage fluid). Format: in vivo. To be noted: female Lewis rats, oral, intra-articular LPS 10 μg one hour later, lavage after two hours. As for the experimental part:
Intra-articular injection of LPS into rat ankles induces the synthesis of TNFα, which can be measured in synovial lavage fluid. High levels of TNFα are detectable within 2 hours. Since the joint is the site where arthritis develops, this model can rapidly determine whether an orally administered compound has an effect on an inflammatory response in the synovium.
Six female Lewis rats (150-200 g) are place in each treatment group. The animals are given vehicle (1% NaCarboxylnethylcellulose-0.25% Tween 80) or test compound (1 mg/kg, 3 mg/kg, 10 mg/kg, and 30 mg/kg) orally. One hour later, 10 μl LPS (10 μg) is administered intra-articularly into the right ankle of each rat, while the left ankle receives 10 μL of saline. After two hours, each ankle is lavaged with 100 μL of saline. The lavage is collected and stored at −80° C. • Group#1: Vehicle (1%/NaCMC-0.25% Tween 80, 1 mL, PO) • Group#2: Test compound (1 mg/kg, 1 mL, PO) • Group#3: Test compound (3 mg/kg, 1 mL, PO) • Group#4: Test compound (10 mg/kg, 1 mL, PO) • Group#5: Test compound (30 mg/kg, 1 mL, PO)
TNFα is measured with a commercially available ELISA kit (R&D, RTA00).

Data set [3] deals with TNFα. The data set is described as follows: Inhibition of TNFα in vitro (LPS/interferon-γ treated mouse peritoneal macrophages, Luminex). To be noted: Peritoneal macrophage, LPS 50 ng/mL and interferon-γ 10 U/mL, 18 hours, read-out: IC50, suppression of TNFα in vitro. The format is cell-based. As for the experimental part:
1 mL thioglycolate broth (5.0 g yeast extract, 15.0 g casitone or trypticase, 5.0 g dextrose, 2.5 g sodium chloride, 0.75 g L-cystine, 0.5 g sodium thioglycolate, 1.0 mg resazurin, and 0.75 g agar in 1.0 L distilled water) are injected into the peritoneal cavity of Balb/C female mice. At day 4 or 5 post-injection the mice are sacrificed and then injected i.p. with 4 mL RPMI-1640 medium (BioWhittaker) and the peritoneal macrophages are withdrawn by syringe.
Mouse peritoneal macrophages are counted with a hemocytometer and adjusted to 5×10^5 cells/well in 96-well plates in RPMI-1640 medium with 10% fetal bovine serum. 200 μL/well is plated in 96-well plates and the cells allowed to settle and adhere to the bottom of the well for at least 3 hours. The test compound or standard p38 kinase inhibitor is pre-treated using a series of 8 concentrations for 1 hour at 37° C. […]
50 μL of cytokine detection antibody is added and incubated for 60 seconds at room temperature on a shaker protected from light at setting 6 and then for 30 minutes at setting 3.3 washes are performed with the Bio-Plex Wash Buffer. […] Standards and samples are read on a Luminex machine. These intensity readings are then converted to picogram/milliliter units based on a 12-point standard curve created in duplicate using a four-parameter logistic regression method (Bio-Plex Manager 2.0, Bio-Rad), and the IC50 calculated. […]

Each structure is given as a SMILES string.

`CS(=O)(=O)O.Cc1ccc(-n2nc(C3(C)CC3)cc2NC(=O)Nc2cnc(OC3CCN(C(=O)C4(C)CC4)CC3)c3ccccc23)cc1` [Example 12, 1-{1-[1-(1-Methyl-cyclopropanecarbonyl)-piperidin-4-yloxy]-isoquinolin-4-yl}-3-[5-(1-methyl-cyclopropyl)-2-p-tolyl-2H-pyrazol-3-yl]-urea mesylate]: in data set [1], the Cmax (in general, the peak of the concentration-time curve) stood at 9390 ng/mL. The AUC(0-t) in data set [1] (read-out: AUC (0-7 h)) was 36800 ng·h/mL. Besides, the “TMED50, inhibition of TNFα synthesis in the synovial lavage fluid” value in data set [2] came out at 2.54 mg/kg. Also, in data set [3], the IC50 (in general, the concentration at which inhibition is half-maximal) is less than 9 nM.
